What all share (type): biochemical
Assay [1] has as its system Dopamine uptake (crude synaptosomal preparation). The assay is described as follows: Uptake of 3H-dopamine in crude synaptosomal preparations of rat hypothalamus and striatum. To be noted: at 10^-5 (Molar by title), rat synaptosomes, mean of triplicate assay with S.E.M. < ±5%. The protocol: (§1) Activity Studies Uptake of ^3 H-Biogenic Amines in Crude Synaptosomal Preparations of Rat Hypothalamus and Striatum.
(§2) A 0.5 mL aliquot of a crude synaptosomal preparation prepared according to the technique of Ferris et al., J. Pharm. Exp. Ther., 181, 407 (1972) and Patrick et al., J. Pharm. Exp. Ther., 241, 152 (1987) was incubated in a standard incubation medium containing 10 μM iproniazid, 1 μM ascorbate and […] of either [^3 H]dopamine, [^3 H]1-norepinephrine or [^3 H]serotonin. Final volumes were 3 mL.
(§3) All incubations were conducted for 3 minutes under an atmosphere of 95% O2 -5% CO2. The uptake at 0° C. and 37° C. was determined in each experiment and the difference between the two determinations represented the accumulation of [^3 H]amine by the temperature-dependent uptake process. Test compounds were dissolved in the standard incubation medium and preincubated with the crude synaptosomal preparation for 5 mintes, before the addition of the labeled substrate.
(§4) Reactions were stopped by the addition of 2 mL of ice-cold 0.32M sucrose containing 25 mM Tris buffer, pH 7.4, and rapid cooling in an ice-bath. Samples were centrifuged at 49,600×g for 10 minutes. The resulting pellet was washed with 5 mL of 0.9% saline and again centrifuged. […] A 1 mL aliquot of the supernatant was taken for determination of radioactivity.

Assay [2] concerns Serotonin uptake (crude synaptosomal preparation). The assay is described as follows: Uptake of 3H-serotonin in crude synaptosomal preparations of rat hypothalamus and striatum. To be noted: rat hypothalamus/striatum synaptosomes, 5 min preincubation, 3 min incubation, 37° C. minus 0° C. uptake, read-out: IC50 (Molar) for Inhibition of Biogenic Amine Uptake, Serotonin. The protocol: as §1, §2, §3, §4

Assay [3] concerns Norepinephrine uptake (crude synaptosomal preparation). The assay is described as follows: Uptake of 3H-norepinephrine in crude synaptosomal preparations of rat hypothalamus and striatum. Particulars: [3H]1-norepinephrine, rat hypothalamus/striatum synaptosomes, 5 min preincubation, 3 min incubation, 37° C. minus 0° C. uptake; read-out: IC50 (Molar) for Inhibition of Biogenic Amine Uptake, Norepinephrine. As for the experimental part: as §1, §2, §3, §4

Usually IC50 stands for the concentration at which inhibition is half-maximal. For the compound “5-Chloro-2-((2-((methylamino)methyl)phenyl)thio)benzyl Alcohol [Example 5]”, the “Percent inhibition of Dopamine uptake” value in assay [1] amounted to 38%. Also, the IC50 is 21 nM in assay [2] and 110 nM in assay [3].
Regarding `CN(C)Cc1ccccc1Sc1ccc(Cl)cc1CO.Cl` [Example 2, 5-chloro-2-((2-((dimethylamino)methyl)phenyl)thio)benzyl alcohol hydrochloride], in assay [1], the “Percent inhibition of Dopamine uptake” value was 15%. In addition, the figures for the 50% inhibitory concentration (IC50) in assay [2] and in assay [3] were 2.1 nM and 55 nM, respectively.

For the origin of these results see US5104897A, “Medical uses of halogen substituted diphenylsulfides” (Burroughs Wellcome Co., priority 1989, dated 1992).
